Measured values taken from patent publication US20150075790A1, “OILFIELD BIOCIDE” (SCHLUMBERGER TECHNOLOGY CORPORATION, priority 2013, published 2015).

How the values were obtained:
Type in all cases: physicochemical
[1] = system: bacteria or other biological agents known to degrade such fluids; test: Viscosity of guar fluid after aging at 25° C. in a non-sterile environment (biocidal activity on a guar system); settings: relatively dilute concentrations; period of at least 6 days
Source text: For purposes herein, aging of a fluid (e.g., a solution or mixture) in a non-sterile environment for purposes of determining the inhibition of biological degradation of the fluid may include the steps of preparing and characterizing a fluid in a non-sterile environment followed by allowing the fluid to age in the non-sterile environment (or non-sterile container) which is, or which has been in fluid communication with an external environment such that the fluid has been exposed to the ambient environment which inherently contains bacteria or other biological agents known to degrade such fluids at room temperature (i.e., 25° C.), followed by characterizing the aged fluid in essentially the same way under the same conditions using the same method utilized to characterize the fluid initially. […] The biocidal activity of a 2-oxo-aldehyde having 3 or more carbon atoms such as methylglyoxal on a guar system was evaluated. […] Samples were maintained at room temperature and their viscosities were measured directly after their preparation (in a non-sterile environment) and then again determined after the different periods of time aging at 25° C. in a non-sterile environment as indicated. The viscosity of sample B was determined initially and then again after 1, 2, 3, and 6 days of aging at 25° C. in a non-sterile environment, i.e., in a covered beaker on a lab bench. […]

[2] = Vortex closure time of boron-crosslinked guar solution, initially and after aging
Procedure: The effects of the biocide on cross linking were evaluated. It is known that chemical contamination may have a detrimental impact on the cross linking of guar and other polymers. The impact of 2-oxo-aldehyde such as MGO on guar crosslinking was evaluated using the vortex closure time of a solution of guar. Vortex closure time is determined by charging a portion of the gel in a blender and measuring the time required for the vortex produced upon initiation of mixing the solution in the blender to close. […] In other words, a non-crosslinked or minimally crosslinked mixture with have an infinite vortex closure time. The higher the level of crosslinking, the shorter the vortex closure time once mixing is initiated.
A comparative sample E and a sample F were prepared by mixing 0.5 g of guar in 99.5 g water and mixing in the blender. Sample F further included 0.4 g MGO solution (0.16 g of MGO). No vortex closure occurred while mixing the uncrosslinked samples. Next, an amount of a Boron based crosslinking agent was added to each of the mixing samples and the initial vortex closure time was measured as shown in Table 4. The vortex closure time was then measured after 4 days of aging at room temperature (25° C.) in a non-sterile environment, and then again after 6 days of aging at 25° C. […] The data also confirm that biological degradation has a pronounced effect on cross-linking.

[3] = Breaking schedule of crosslinked guar gel with oxidizer (breaker), viscosity at 66° C.; settings: shear rate 100 sec^-1, 66° C. (150° F.)
Procedure: Two samples were evaluated to determine the impact of the MGO on the breaking schedule of a guar solution. The viscosity of each sample was measured at a shear rate of 100 sec^−1 while aging at 66° C. (150° F.) in the presence of an oxidizer (a breaker) to determine the effect 2-oxo-aldehyde such as MGO has on gel stability. The data is shown graphically in FIG. 4.

[4] = system: biological degradation of the concentrated guar fluids; test: Viscosity of highly concentrated guar fluids (water in water emulsion) after aging and dilution; settings: ~200 ppt guar
Procedure: The efficacy of 2-oxo-aldehyde such as MGO as a biocide was investigated on highly concentrated guar fluids (˜200 ppt) produced as a water in water emulsion. Comparative sample G and sample H were prepared without and with MGO respectively. After dilution of the concentrated fluids (1 part of sample to 4 parts of water) their rheological properties were measured after 0, 1, 2, 3, and 4 days. The data are shown graphically in FIG. 5. […] After three days of aging at 25° C., comparative sample G (without MGO) presents a much lower viscosity than its initial value at day 0, i.e. the fluid in comparative sample G has been degraded.

CC(=O)C=O [MGO, methylglyoxal]
Effectiveness in reducing biological degradation of the guar fluid [1]: effective in reducing biological degradation
Impact on the vortex closure time ([2]; 160 mg/L (0.4 gpt), even after several days): does not have any impact on the vortex closure time
Interference with crosslinking of the polymer ([2]; boron based crosslinking agent, guar): does not prevent or interfere with the crosslinking
Impact on the breaking schedule of a guar gel (FIG. 4) [3]: does not have a significant impact on the breaking schedule
Prevention of biological degradation of concentrated guar fluids [4]: has prevented biological degradation
